{"source": "patent US10065941B2", "about": "“Aminotriazine derivative and pharmaceutical composition comprising the same” (Shionogi & Co., Ltd., priority 2013, dated 2018)"}
{"biological_target": "human P2X3 receptor (Homo sapiens (Human), UniProt P56373)", "sequence (P56373 whole entry)": "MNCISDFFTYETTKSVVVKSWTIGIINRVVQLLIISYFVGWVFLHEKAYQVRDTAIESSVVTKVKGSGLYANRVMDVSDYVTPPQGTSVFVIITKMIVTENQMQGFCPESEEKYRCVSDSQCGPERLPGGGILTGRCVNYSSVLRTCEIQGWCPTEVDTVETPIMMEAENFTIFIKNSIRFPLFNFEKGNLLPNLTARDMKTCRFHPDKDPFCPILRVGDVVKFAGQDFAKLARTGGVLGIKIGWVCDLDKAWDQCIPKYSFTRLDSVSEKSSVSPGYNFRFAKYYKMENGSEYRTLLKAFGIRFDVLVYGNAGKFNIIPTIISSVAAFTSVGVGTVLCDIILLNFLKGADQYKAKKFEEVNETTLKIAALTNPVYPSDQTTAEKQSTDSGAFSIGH", "assay": "Evaluation of human P2X3 receptor inhibitory activity (Test Example 1)", "type": "cell-based", "conditions": "C6BU-1 cell transfected with human P2X3 receptor gene, FLIPR 384", "procedure": "Stably expressing cell line (C6BU-1 cell transfected with human P2X3 receptor gene (GenBank accession number Y07683) was used. The cells were seeded in a 384-well PDL-coated microtiter plate at a concentration of 3000 cells/well and cultured in the medium (8.3% fetal bovine serum, 8.3% horse serum, and 1% antibiotic and antifungal in DMEM) for one day at 37° C. under 5% carbon dioxide atmosphere. The medium was replaced with 4 μM Fluo-3-AM solution (20 mM HEPES, 137 mM NaCl, 2.7 mM KCl, 0.9 mM MgCl2, 5.0 mM CaCl2, 5.6 mM D-glucose, 2.5 mM probenecid, 0.5% BSA, and 0.04% Pluronic F-127, pH 7.5) and incubated at 37° C. under 5% dioxide carbon atmosphere for one hour. The plate was washed with washing buffer (20 mM HEPES, 137 mM NaCl, 2.7 mM KCl, 0.9 mM MgCl2, 5.0 mM CaCl2, 5.6 mM D-glucose, 2.5 mM probenecid, pH7.5), and each well was added with 20 μL of the washing buffer. The plate was placed in High-Throughput Screening System FLIPR 384 (Molecular Device Co.). Measurement of fluorescence intensity by FLIPR 384 was started, and 20 μL of DMSO solutions containing different concentrations of the test compound as prepared by dilution with dilution buffer (20 mM HEPES, 137 mM NaCl, 2.7 mM KCl, 0.9 mM MgCl2, 5.0 mM CaCl2, 5.6 mM D-glucose, 2.5 mM probenecid, 0.1% Pluronic F-127, pH7.5) were dispensed to each well through the built-in automatic dispenser. Five minutes after, 150 nM ATP solution (25 μL) prepared by dilution with the dilution buffer was dispensed through the built-in automatic dispenser, and the measurement of fluorescence intensity was continued for 4 min. For each well, the specific maximum fluorescence intensity was calculated as the ratio of the maximum fluorescence intensity after addition of the ATP solution to the fluorescence intensity at the starting of the measurement. […] The specific maximum fluorescence intensity and IC50 were calculated using Spotfire (Science & Technology Systems, Inc.)", "units": {"IC50": "nM"}}
{"smiles": "COC(=O)[C@@H](C)Cn1c(=O)[nH]/c(=N\\c2ccc(Oc3ccc(C(F)(F)F)nn3)cc2)n(Cc2ccc(Cl)cc2)c1=O", "note": "[Compound R-028]", "IC50": 7}
{"smiles": "COC(=O)C(C)(C)Cn1c(=O)[nH]/c(=N\\c2ccc(Oc3ccccn3)cc2)n(Cc2ccc(C)cc2)c1=O", "note": "[Compound I-150]", "IC50": 4}
{"smiles": "CCOC(=O)CCCn1c(=O)[nH]/c(=N\\c2ccc(Oc3ncccc3F)cc2)n(Cc2ccc(C)cc2)c1=O", "note": "[Compound R-294]", "IC50": 6}
{"smiles": "COC(=O)C(C)(C)Cn1c(=O)[nH]/c(=N\\c2ccc(Oc3ncccc3OC)cc2)n(Cc2ccc(Cl)cc2)c1=O", "note": "[Compound I-159]", "IC50": 9}
{"smiles": "CC(C)(Cn1c(=O)[nH]/c(=N\\c2ccc(OC3CCC3)c(F)c2)n(Cc2ccc(Cl)cc2)c1=O)C(=O)O", "note": "[Compound R-077]", "IC50": 24}
{"smiles": "COC(=O)[C@@H](C)Cn1c(=O)[nH]/c(=N\\c2ccc(Oc3cccc(F)n3)cc2)n(Cc2ccc(C)cc2)c1=O", "note": "[Compound I-053]", "IC50": 6}
{"smiles": "COC(=O)CCn1c(=O)[nH]/c(=N\\c2ccc(Oc3ccccn3)c(C)c2)n(Cc2ccc(C)cc2)c1=O", "note": "[Compound R-290]", "IC50": 6}
{"smiles": "CC(C)(Cn1c(=O)[nH]/c(=N\\c2ccc(Oc3ncccn3)cc2)n(Cc2ccc(Cl)cc2)c1=O)C(=O)O", "note": "[Compound R-060]", "IC50": 16}
{"smiles": "COC(=O)[C@@H](C)Cn1c(=O)[nH]/c(=N\\c2ccc(Oc3ccnc(C#N)c3)cc2)n(Cc2ccc(Cl)cc2)c1=O", "note": "[Compound R-099]", "IC50": 4}
{"smiles": "CCOC(=O)Cn1c(=O)[nH]/c(=N\\c2ccc(Oc3ccc(F)cn3)cc2)n(Cc2ccc(Cl)cc2)c1=O", "note": "[Compound R-309]", "IC50": 4}
{"smiles": "Cc1ccc(Cn2c(=O)n([C@@H](C)[C@@H](C)C(=O)O)c(=O)[nH]/c2=N\\c2ccc(Oc3ccc(OC(F)F)cn3)cc2)cc1", "note": "[Compound I-138]", "IC50": 7}
{"smiles": "Cc1ccc(Cn2c(=O)n(C[C@H](C)C(=O)O)c(=O)[nH]/c2=N\\c2ccc(Oc3ccc(C)cn3)cc2)cc1", "note": "[Compound I-112]", "IC50": 4}
{"smiles": "CC(CO)(CO)Cn1c(=O)[nH]/c(=N\\c2ccc(Oc3ccccn3)cc2)n(Cc2ccc(Cl)cc2)c1=O", "note": "[Compound R-244]", "IC50": 4}
{"smiles": "COc1ccc(Oc2ccc(/N=c3\\[nH]c(=O)n([C@@H](C)[C@@H](C)C(=O)O)c(=O)n3Cc3ccc(Cl)cc3)cc2)nn1", "note": "[Compound R-191]", "IC50": 12}
{"smiles": "COC(=O)C(C)(C)Cn1c(=O)[nH]/c(=N\\c2ccc(Oc3cc(C(F)(F)F)ccn3)cc2)n(Cc2ccc(Cl)cc2)c1=O", "note": "[Compound I-085]", "IC50": 225}
{"smiles": "C[C@@H](Cn1c(=O)[nH]/c(=N\\c2ccc(Oc3ccccn3)cc2)n(CC2CC3(CCC3)C2)c1=O)C(=O)O", "note": "[Compound I-263]", "IC50": 5}
{"smiles": "COC(=O)[C@@H](C)Cn1c(=O)[nH]/c(=N\\c2ccc(Oc3ccnc(F)c3)cc2)n(Cc2ccc(C)cc2)c1=O", "note": "[Compound R-221]", "IC50": 5}
{"smiles": "COC(=O)[C@@H](C)Cn1c(=O)[nH]/c(=N\\c2ccc(Oc3ccc(F)cn3)cc2)n(CC2CC3(CCC3)C2)c1=O", "note": "[Compound I-269]", "IC50": 4}
{"smiles": "COC(=O)C(C)(C)Cn1c(=O)[nH]/c(=N\\c2ccc(Oc3cc(Cl)ccn3)cc2)n(Cc2ccc(Cl)cc2)c1=O", "note": "[Compound I-081]", "IC50": 38}
{"smiles": "Cc1nc(Oc2ccc(/N=c3\\[nH]c(=O)n(CC(C)(C)C(=O)O)c(=O)n3Cc3ccc(Cl)cc3)cc2)no1", "note": "[Compound R-115]", "IC50": 65}
{"smiles": "CC(C)(Cn1c(=O)[nH]/c(=N\\c2ccc(Oc3cncc(Cl)c3)cc2)n(Cc2ccc(Cl)cc2)c1=O)C(=O)O", "note": "[Compound R-082]", "IC50": 7}
{"smiles": "COC(=O)[C@@H](C)Cn1c(=O)[nH]/c(=N\\c2ccc(Oc3ncccc3OC(F)F)cc2)n(Cc2ccc(Cl)cc2)c1=O", "note": "[Compound I-043]", "IC50": 117}
{"smiles": "COC(=O)[C@H](C)[C@H](C)n1c(=O)[nH]/c(=N\\c2ccc(Oc3cnc(Cl)cn3)cc2)n(Cc2ccc(Cl)cc2)c1=O", "note": "[Compound R-159]", "IC50": 18}
{"smiles": "CC(C)n1c(=O)[nH]/c(=N\\c2ccc(Oc3cccc(C(=O)O)n3)c(Cl)c2)n(Cc2ccc(Cl)cc2)c1=O", "note": "[Compound R-012]", "IC50": 5}
{"smiles": "COC(=O)C[C@@H](C)n1c(=O)[nH]/c(=N\\c2ccc(Oc3ccc(F)cn3)cc2)n(Cc2ccc(C)cc2)c1=O", "note": "[Compound I-190]", "IC50": 5}
{"smiles": "COC(=O)C(C)(C)Cn1c(=O)[nH]/c(=N\\c2ccc(Oc3cccc(Cl)n3)cc2)n(Cc2ccc(Cl)cc2)c1=O", "note": "[Compound I-012]", "IC50": 25}
{"smiles": "COC(=O)Cn1c(=O)[nH]/c(=N\\c2ccc(Oc3ccccn3)cc2)n(Cc2ccc(Cl)cc2)c1=O", "note": "[Compound R-238, 1-(4-chlorobenzyl)-3-(methoxycarbonylmethyl)-6-[4-(2-pyridyloxy)phenylimino]-1,3,5-triazinane-2,4-dione]", "IC50": 7}
{"smiles": "COC(=O)[C@@H](C)Cn1c(=O)[nH]/c(=N\\c2ccc(Oc3cncc(Cl)c3)cc2)n(Cc2ccc(Cl)cc2)c1=O", "note": "[Compound R-079]", "IC50": 11}
{"smiles": "CC(C)(Cn1c(=O)[nH]/c(=N\\c2ccc(Oc3ccccn3)cc2)n(Cc2ccc(Cl)cc2)c1=O)C(=O)O", "note": "[Compound I-154]", "IC50": 8}
{"smiles": "COC(=O)[C@@H](C)Cn1c(=O)[nH]/c(=N\\c2ccc(Oc3ccc(C)cn3)cc2)n(Cc2ccc(C)cc2)c1=O", "note": "[Compound I-108]", "IC50": 4}
{"smiles": "CC(=O)c1ccc(Oc2ccc(/N=c3\\[nH]c(=O)n(CCC(=O)O)c(=O)n3Cc3ccc(Cl)cc3)cc2)nc1", "note": "[Compound R-305]", "IC50": 7}
{"smiles": "C[C@@H](Cn1c(=O)[nH]/c(=N\\c2ccc(Oc3cncc(Cl)c3)cc2)n(Cc2ccc(Cl)cc2)c1=O)C(=O)O", "note": "[Compound R-081]", "IC50": 5}
{"smiles": "C[C@@H](Cn1c(=O)[nH]/c(=N\\c2ccc(Oc3cnc(C(F)(F)F)cn3)cc2)n(Cc2ccc(Cl)cc2)c1=O)C(=O)O", "note": "[Compound R-039]", "IC50": 6}
{"smiles": "COc1cccnc1Oc1ccc(/N=c2\\[nH]c(=O)n(C[C@H](C)C(=O)O)c(=O)n2Cc2ccc(Cl)cc2)cc1", "note": "[Compound I-156]", "IC50": 12}
{"smiles": "C[C@@H](Cn1c(=O)[nH]/c(=N\\c2ccc(Oc3ccccn3)cc2)n(Cc2ccc(CF)cc2)c1=O)C(=O)O", "note": "[Compound I-214]", "IC50": 11}
{"smiles": "COC(=O)C(C)(C)Cn1c(=O)[nH]/c(=N\\c2ccc(Oc3cnccn3)c(F)c2)n(Cc2ccc(Cl)cc2)c1=O", "note": "[Compound R-049]", "IC50": 8}
{"smiles": "Cc1ccc(Cn2c(=O)n(CCCC(=O)O)c(=O)[nH]/c2=N\\c2ccc(Oc3cccc(F)n3)cc2)cc1", "note": "[Compound R-279]", "IC50": 7}
{"smiles": "Cc1ccc(Cn2c(=O)n(C[C@H](C)C(=O)O)c(=O)[nH]/c2=N\\c2ccc(Oc3ncccc3Cl)cc2)cc1", "note": "[Compound I-117]", "IC50": 5}
{"smiles": "Cc1cc(/N=c2\\[nH]c(=O)n(C[C@H](C)C(=O)O)c(=O)n2Cc2ccc(Cl)s2)ccc1Oc1ncccc1F", "note": "[Compound I-276]", "IC50": 19}
{"smiles": "COC(=O)[C@H](C)[C@H](C)n1c(=O)[nH]/c(=N\\c2ccc(Oc3ccc(C)cn3)cc2)n(Cc2ccc(Cl)cc2)c1=O", "note": "[Compound I-073]", "IC50": 15}
{"smiles": "C[C@@H](Oc1ccc(/N=c2\\[nH]c(=O)n(CC(C)(C)C(=O)O)c(=O)n2Cc2ccc(Cl)cc2)cc1F)C(F)(F)F", "note": "[Compound R-095]", "IC50": 45}
{"smiles": "COC(=O)[C@@H](C)Cn1c(=O)[nH]/c(=N\\c2ccc(Oc3cncc(C)c3)cc2)n(Cc2ccc(Cl)cc2)c1=O", "note": "[Compound R-184]", "IC50": 10}
{"smiles": "CCOC(=O)[C@H]1C[C@@H](n2c(=O)[nH]/c(=N\\c3ccc(Oc4ccccn4)cc3)n(Cc3ccc(Cl)cc3)c2=O)C1", "note": "[Compound I-171]", "IC50": 9}
{"smiles": "COC(=O)CCn1c(=O)[nH]/c(=N\\c2ccc(-n3ccccc3=O)cc2)n(Cc2ccc(Cl)cc2)c1=O", "note": "[Compound R-227]", "IC50": 35}
{"smiles": "CCOC(=O)C[C@H](O)Cn1c(=O)[nH]/c(=N\\c2ccc(Oc3ccc(F)cn3)cc2)n(Cc2ccc(Cl)cc2)c1=O", "note": "[Compound I-089]", "IC50": 8}
{"smiles": "COc1cncc(Oc2ccc(/N=c3\\[nH]c(=O)n(CC(C)(C)C(=O)O)c(=O)n3Cc3ccc(Cl)cc3)cc2)c1", "note": "[Compound R-202]", "IC50": 12}
{"smiles": "C[C@@H](Cn1c(=O)[nH]/c(=N\\c2ccc(Oc3cccc(F)n3)cc2)n(CC2CCC3(CC2)CC3)c1=O)C(=O)O", "note": "[Compound I-234]", "IC50": 7}
{"smiles": "C[C@@H](C(=O)O)[C@H](C)n1c(=O)[nH]/c(=N\\c2ccc(Oc3cc(C#N)ccn3)cc2)n(Cc2ccc(Cl)cc2)c1=O", "note": "[Compound I-134]", "IC50": 7}
{"smiles": "COC(=O)[C@H](Cn1c(=O)[nH]/c(=N\\c2ccc(Oc3ccccn3)cc2)n(Cc2ccc(Cl)cc2)c1=O)OC", "note": "[Compound I-143]", "IC50": 5}
{"smiles": "C[C@@H](Cn1c(=O)[nH]/c(=N\\c2ccc(Oc3ncccc3OC(F)F)cc2)n(Cc2ccc(Cl)cc2)c1=O)C(=O)O", "note": "[Compound I-044]", "IC50": 26}
{"smiles": "Cc1ccc(Cn2c(=O)n([C@@H](C)[C@@H](C)C(=O)O)c(=O)[nH]/c2=N\\c2ccc(Oc3ccc(Cl)cn3)cc2)cc1", "note": "[Compound I-123]", "IC50": 5}
{"smiles": "O=C(O)CCn1c(=O)[nH]/c(=N\\c2ccc(Oc3cccc(F)n3)cc2)n(Cc2ccc(CF)cc2)c1=O", "note": "[Compound R-275]", "IC50": 23}
